Entries after “also recorded” stand apart in the source; their conditions may differ. Where two headings read alike, the source gives them in different places.
Legend:
[1] = tested on: HCT116; experiment: Sensitivity to cell killing by cMET inhibitor MK-2461; format: cell-based
[2] = tested on: HCT15 (or AGS); experiment: as above; format: cell-based
[3] = tested on: A549; experiment: as above; format: cell-based
[4] = tested on: HT29; experiment: as above; format: cell-based
[5] = tested on: Colo205; experiment: as above; format: cell-based
[6] = tested on: EBC-1; experiment: as above; format: cell-based
[7] = tested on: GTL-16; experiment: as above; format: cell-based
[8] = tested on: growth factor signaling pathway signature in EBC-1; experiment: Growth factor signaling pathway signature score after MK-2461 in cell lines (microarray); format: cell-based; details: 1 μM, 6 and 12 hours post-treatment
Description: (§1) Ten cell lines with alternations of the PI3K/MAPK pathway components were identified (see Table 6), including two cell lines with amplification of cMET (EBC-1 and GTL-16). […] To assess the regulation of the growth factor signaling pathway signature in these cells, these cell lines were treated with vehicle or 1 μM MK-2461. The cell lines were profiled at 6 and 12 hours post-treatment. Duplicate cultures were seeded in 6-well plates for each treatment group. Cell were ˜70% confluent at time of collection. Experiments were performed in duplicate.
(§2) RNA was harvested from both vehicle-treated and compound treated cells, and regulation of the growth factor signaling pathway by MK-2461 was assessed by comparing gene expression profiles of MK-2461 treated cells to vehicle treated cells. For every probe on the microarray, the log(10) ratio of expression in the MK-2461 treated samples relative to the cell line-matched vehicle treated samples was calculated. The growth factor signaling pathway signature score was calculated as the mean log(10) ratio of the genes in the “up” arm of the signature (see Table 5a) minus the mean log(10) ratio of the genes in the “down” arm of the signature (see Table 5b).

[9] = tested on: growth factor signaling pathway signature in GTL-16; experiment: as above; format: cell-based; details: 1 μM, 6 and 12 hours post-treatment
Description: as §1, §2

[10] = tested on: EBC-1 tumor cells; experiment: EBC-1 xenograft tumor growth; format: in vivo, HRLN female nu/nu mice
Description: (§3) HRLN female nu/nu mice were subcutaneously implanted with 5×10^6 EBC-1 tumor cells. Tumors were allowed to grow an average size of 450-500 mg before treatment was administered. Xenografts were treated with vehicle or 11, 34, or 112 mpk of MK-2461 (n=4 for each treatment group). […] Treatment was administered PO BID for 7 days. Tumors were harvested 2 hours after the final dose, as this was the estimated time to achieve Cmax.

[11] = tested on: growth factor signaling pathway signature in EBC-1 xenografts; experiment: Growth factor signaling pathway signature score in EBC-1 xenografts (microarray); format: in vivo, HRLN female nu/nu mice; details: 112 mpk PO BID for 7 days; tumors harvested 2 hours after the final dose
Description: as §3
RNA was harvested from both vehicle-treated and compound-treated samples. Regulation of the growth factor signaling pathway signature by MK-2461 was assessed by comparing gene expression profiles of MK-2461 treated samples to the mean gene expression profile of the 4 vehicle treated samples. The log(10) ratio of expression in the MK-2461 treated samples relative to the mean of the vehicle treated samples was calculated for every probe on the microarray. The growth factor signaling pathway signature score was calculated as the mean log(10) ratio of the genes in the “up” arm of the signature (see Table 5a) minus the mean log(10) ratio of the genes in the “down” arm of the signature (see Table 5b).

[12] = tested on: CSF-1729; experiment: Patient-derived tumor xenograft growth inhibition (T/C); format: in vivo, NMRI female nu/nu mice; details: 500 μg/mouse ip once weekly
From the text: (§4) NMRI female nu/nu mice were subcutaneously implanted with patient-derived tumor xenografts: lung adenocarcinoma LXFA 526, LXFA 629, LXFA 677, LXFA 749 and LXFA 1012; squamous cell lung carcinoma LXFE, 211, LXFE 397, LXFE 409 and LXFE 1422; small cell lung cancer LXFS 538, LXFS 573 and LXFS 615; colorectal carcinoma CXF 94LX, CXF 158, CXF 280, CXF 975, CXF 1103 and CXF 1729; renal cell carcinoma RXF 393, RXF 423, RXF 631 and RXF 1220; gastric cancer GXF 97, GXF 251 and GXF 281; ovarian cancer OVXF 550, OVXF 899, OVXF 1023, OVXF 1353 and OVXF 1544 (Oncotest GmbH, Freiburg, Germany). All tumor xenografts were derived from surgical specimen from human patients and directly transplanted into nude mice for propagation. Tumor xenografts were passaged in nude mice until establishment of a stable growth pattern. Master stocks of early passage xenografts were frozen in liquid nitrogen. A particular master stock batch is typically only used for about 20 further passages. Tumor fragments were obtained from xenografts in serial passage in nude mice. After removal of tumors from donor mice, they were cut into fragments (1-2 mm diameter) and placed RPMI 1640 culture medium until subcutaneous implantation. Recipient mice were anesthetized by inhalation of isoflurane. Tumor fragments (1-2 per mouse) were transplanted subcutaneously into the backs of recipient mice. Animals carrying at least one tumor of appropriate size (mean tumor diameter 6-8 mm, minimum acceptable tumor diameter 5 mm) were considered for randomization into treatment and vehicle control groups.
(§5) MK-0646 IGF1R monoclonal antibody (U.S. Pat. No. 7,241,444) was diluted to a final dosing concentration of 2 mg/mL with 20 mM—L Histidine, 150 mM NaCl, 0.5% PS—80 w/w pH 6.5 at ratio of 1:5.65. The diluted treatment solution was administered at an application volume of 250 μl/mouse for the dose level of 500 μg/mouse. The control vehicle was 20 mM-L Histidine, 150 mM NaCl, 0.5% PS-80 w/w, pH6.5. Vehicle was administered at 250 μl/mouse. IGF1R monoclonal antibody and control vehicle were injected intraperitoneally. Test and control mice were injected once a week on the same days. The number of injections ranged from 2 to 7, depending on the duration of the experiment. Experiments were terminated when one of the limits set by the German animal regulations was met.
(§6) Each experiment consisted of a vehicle control group (Group 1) receiving 20 mM-L Histidine, 150 mM NaCl, 0.5% PS-80 w/w, pH6.5 at 250 μL/mouse ip once weekly and one group treated with IGF-1R at 500 μg/mouse ip once weekly (Group 2). For sample collection purposes each experiment also comprised two groups (Groups 3 and 4) receiving a single therapy either with the vehicle or with IGF-1R at the same dose levels. According to the study protocol the group size in the efficacy groups (Groups 1 and 2) was 7 mice while the sample collection groups (Group 3 and 4) contained 3 nude mice each. In the experiments with CXF 1103 and RXF 631 bearing mice the efficacy groups contained 8 mice and group size in the efficacy groups of the experiment with LXFE 211 bearing nude mice was 9. […]
(§7) Relative volumes of individual tumors (RTVs) for Day x were calculated by dividing the individual tumor volume on Day X (Tx) by the individual volume of the same tumor on Day 0 (T0) multiplied by 100%.
(§8) [formula] Group tumor volumes were expressed as the median RTV of all tumors in a group (group median RTV). […]

[13] = tested on: CSF-280; experiment: as above; format: in vivo, NMRI female nu/nu mice; details: 500 μg/mouse ip once weekly
From the text: as §4, §5, §6, §7, §8

[14] = tested on: CSF-94LX; experiment: as above; format: in vivo, NMRI female nu/nu mice; details: 500 μg/mouse ip once weekly
From the text: as §4, §5, §6, §7, §8

[15] = tested on: LXFA-629; experiment: as above; format: in vivo, NMRI female nu/nu mice; details: 500 μg/mouse ip once weekly
From the text: as §4, §5, §6, §7, §8

[16] = tested on: OVXF-899; experiment: as above; format: in vivo, NMRI female nu/nu mice; details: 500 μg/mouse ip once weekly
From the text: as §4, §5, §6, §7, §8

[17] = tested on: MAXF-713; experiment: as above; format: in vivo, NMRI female nu/nu mice; details: 500 μg/mouse ip once weekly
[18] = tested on: SXF-1186; experiment: as above; format: in vivo, NMRI female nu/nu mice; details: 500 μg/mouse ip once weekly
[19] = tested on: growth factor signaling pathway signature in LXFA-629; experiment: Growth factor signaling pathway signature score post/pre-dose ratio in xenografts; format: in vivo, NMRI female nu/nu mice; details: 24 hours after a single treatment, 500 μg/mouse ip
Description: (§9) Animals of Groups 3 and 4 were sacrificed for sample collection when the tumors had volumes between 400 and 600 mm^3 and 24 hours after a single treatment with either the control vehicle (Group 3) or IGF1R (Group 4). Tumors were cut into two parts, snap frozen in liquid nitrogen and stored at −80° C. RNA was harvested from both vehicle-treated and MK0646-treated samples as previously described for hybridization to DNA oligonucleotide arrays.
(§10) Regulation of the growth factor signaling pathway signature by MK-0646 was assessed by comparing mean gene expression profiles of MK0646 treated samples for each xenograft to the mean gene expression profile of the vehicle treated samples. The log(10) ratio of expression in the MK-0646 treated samples relative to the vehicle treated samples was calculated for every probe on the microarray. The growth factor signaling pathway signature score was calculated as the mean log(10) ratio of the genes in the “up” arm of the signature (see Table 5a) minus the mean log(10) ratio of the genes in the “down” arm of the signature (see Table 5b). A post/pre-dose ratio of the growth factor signaling pathway signature score was then calculated and compared to the tumor inhibition T/C ratio for each xenograft (see FIG. 34).

[20] = tested on: growth factor signaling pathway signature in MAXF-713; experiment: as above; format: in vivo, NMRI female nu/nu mice; details: 24 hours after a single treatment, 500 μg/mouse ip
Description: as §9, §10

## CN(C[C@@H]1COCCO1)S(=O)(=O)Nc1ccc2ccc3ncc(-c4cnn(C)c4)cc3c(=O)c2c1 [MK-2461, N-[(2R)-1,4-dioxan-2-ylmethyl]-N-methyl-N′-[3-(1-methyl-1H-pyrazol-4-yl)-5-oxo-5H-benzo[4,5]cyclohepta[1,2-b]pyridin-7-yl]sulfamide]
[1]
  sensitive to MK2461: no
[2]
  sensitive to MK2461: no
[3]
  sensitive to MK2461: no
[4]
  sensitive to MK2461: no
[5]
  sensitive to MK2461: no
[6]
  sensitive to MK2461: sensitive to cell killing
[6]; listed as MK2461
  sensitive to MK2461: ✓
[7]
  sensitive to MK2461: sensitive to cell killing
[7]; listed as MK2461
  sensitive to MK2461: ✓
[8]
  inhibition of the growth factor signaling pathway signature: Inhibition of the growth factor signaling pathway signature was observed; also recorded: inhibition of the growth factor signaling pathway was only observed
[9]
  inhibition of the growth factor signaling pathway signature: Inhibition of the growth factor signaling pathway signature was observed; also recorded: inhibition of the growth factor signaling pathway was only observed
[10]; 11 mpk PO BID
  effect on tumor growth: no effect on tumor growth
[10]; 34 mpk PO BID
  effect on tumor growth: no effect on tumor growth
[10]; 112 mpk
  efficacy in xenografts: only dose that resulted in efficacy
[10]; 112 mpk PO BID
  tumor growth inhibition compared to vehicle treatment: approximately 30%
[11]
  inhibition of the growth factor signaling pathway signature in xenografts: Inhibition of the growth factor signaling pathway signature was only observed

## MK-0646: IGF1R monoclonal antibody (U.S. Pat. No. 7,241,444)
[12]
  tumor inhibition (T/C ratio): moderate response
[13]
  tumor inhibition (T/C ratio): moderate response
[14]
  tumor inhibition (T/C ratio): strong tumor inhibition
[15]
  tumor inhibition (T/C ratio): strong tumor inhibition; also recorded: most tumor inhibition
[16]
  tumor inhibition (T/C ratio): strong tumor inhibition
[17]
  tumor inhibition (T/C ratio): strong tumor inhibition; also recorded: most tumor inhibition
[18]
  tumor inhibition (T/C ratio): moderate response
[19]
  growth factor signaling score post/pre-dose ratio: low
[20]
  growth factor signaling score post/pre-dose ratio: low
